According to patent US11541104B2, “Method for preventing or treating osteoporosis, characterized by administering teriparatide or salt thereof at a frequency of twice a week” (ASAHI KASEI PHARMA CORPORATION, priority 2018, dated 2023):

What was measured:
Format in all cases: in vivo, rabbit
[1] = system: six-month old female rabbits; test: Bone mineral densities of tibiae of rabbits (Working Example 2); conditions: 4 weeks; for Bone mineral densities in proximal part (1/5 site) of the tibiae: 140 μg/kg per week; for Bone mineral densities in the proximal part (1/5 site) of the tibiae: weekly dosage 140 μg/kg
Protocol: (§1) To evaluate the influences of the administration frequencies of teriparatide on the bone metabolism and the bone tissue morphology, six-month old female rabbits were subcutaneously administered with an agent in a manner that a weekly dosage of teriparatide was adjusted to 140 μg/kg at a frequency of once a week, twice a week or seven times a week over 4 weeks, or with a control drug without containing teriparatide at a frequency of seven times a week over 4 weeks (Table 2-54). Also, the bone mineral density and the bone strength of the tibiae were measured. The teriparatide solution which was administered was appropriately prepared by dissolving teriparatide acetate in a water for injection, filtering the solution, filling the filtrate in a vial, freeze-drying to give a preparation, and dissolving the preparation in a physiological saline upon use.
The bone mineral densities of the tibiae were analyzed in divided regions.

[2] = system: six-month old female rabbits; test: Bone strength of tibiae of rabbits, three-point bending strength; conditions: for Maximum load, bone strength of tibiae: 140 μg/kg per week, subcutaneous, 4 weeks; for Maximum load, three-point bending strength of the tibiae: versus control group
Protocol: as §1
Three-point bending strength of the tibiae collected after the end of the administration period was measured.

[3] = system: six-month old female rabbits; test: Bone tissue morphology of diaphysis of tibiae of rabbits
Protocol: as §1

[4] = group administered twice a week
[5] = group administered seven times a week

CC[C@H](C)[C@H](NC(=O)[C@H](CCC(=O)O)NC(=O)[C@H](CO)NC(=O)[C@@H](NC(=O)[C@@H](N)CO)C(C)C)C(=O)N[C@@H](CCC(N)=O)C(=O)N[C@@H](CC(C)C)C(=O)N[C@@H](CCSC)C(=O)N[C@@H](Cc1cnc[nH]1)C(=O)N[C@@H](CC(N)=O)C(=O)N[C@@H](CC(C)C)C(=O)NCC(=O)N[C@@H](CCCCN)C(=O)N[C@@H](Cc1cnc[nH]1)C(=O)N[C@@H](CC(C)C)C(=O)N[C@@H](CC(N)=O)C(=O)N[C@@H](CO)C(=O)N[C@@H](CCSC)C(=O)N[C@@H](CCC(=O)O)C(=O)N[C@@H](CCCN=C(N)N)C(=O)N[C@H](C(=O)N[C@@H](CCC(=O)O)C(=O)N[C@@H](Cc1c[nH]c2ccccc12)C(=O)N[C@@H](CC(C)C)C(=O)N[C@@H](CCCN=C(N)N)C(=O)N[C@@H](CCCCN)C(=O)N[C@@H](CCCCN)C(=O)N[C@@H](CC(C)C)C(=O)N[C@@H](CCC(N)=O)C(=O)N[C@@H](CC(=O)O)C(=O)N[C@H](C(=O)N[C@@H](Cc1cnc[nH]1)C(=O)N[C@@H](CC(N)=O)C(=O)N[C@@H](Cc1ccccc1)C(=O)O)C(C)C)C(C)C [teriparatide]
Bone mineral densities in proximal part (1/5 site) of the tibiae ([1]; Group administered once a week, subcutaneous): 272.5 ± 13.6 mg/cm^2
Bone mineral densities in proximal part (1/5 site) of the tibiae ([1]; Group administered twice a week, subcutaneous): 278.8 ±9.8 mg/cm^2
Bone mineral densities in the proximal part (1/5 site) of the tibiae [1, 4]: higher value than that of the group administered once a week
Bone mineral densities in the proximal part (1/5 site) of the tibiae ([1]; subcutaneous, as compared to control group): remarkably increased
Maximum load, bone strength of tibiae ([2]; Group administered once a week): 583.81 N
Maximum load, bone strength of tibiae ([2]; Group administered seven times a week): 656.09 N
Maximum load, bone strength of tibiae ([2]; Group administered twice a week): 624.41 N
Maximum load, three-point bending strength of the tibiae [2, 5]: higher values
Maximum load, three-point bending strength of the tibiae [2, 4]: higher values
Bone tissue morphology of diaphysis of tibiae ([3]; group administered once a week): none of these findings were observed
Bone tissue morphology of diaphysis of tibiae [3, 5]: formation of trabecular bones on the endocortical surfaces, a large number of intracortical voids (increase of cortical porosity), and disorderedness in a lamellar structure were observed
Bone tissue morphology of diaphysis of tibiae [3, 4]: none of these findings were observed
